Laboratory results: PMC7114135, “Interaction between the Antimalarial Drug Dispiro-Tetraoxanes and Human Serum Albumin: A Combined Study with Spectroscopic Methods and Computational Studies” (ACS Omega, 2020)

Molecular target: T1, human serum albumin (HSA) (Homo sapiens, UniProt P02768)
T1 construct: gene ALB; fatty-acid-free HSA (Sigma-Aldrich A3782)
Experiment: intrinsic fluorescence quenching (modified Stern-Volmer, binding constant Kb, […] K), supported by UV-vis, time-resolved fluorescence and CD
Conditions: read-out: Kb (L mol^-1) (converted)

T1 sequence (P02768 25-609): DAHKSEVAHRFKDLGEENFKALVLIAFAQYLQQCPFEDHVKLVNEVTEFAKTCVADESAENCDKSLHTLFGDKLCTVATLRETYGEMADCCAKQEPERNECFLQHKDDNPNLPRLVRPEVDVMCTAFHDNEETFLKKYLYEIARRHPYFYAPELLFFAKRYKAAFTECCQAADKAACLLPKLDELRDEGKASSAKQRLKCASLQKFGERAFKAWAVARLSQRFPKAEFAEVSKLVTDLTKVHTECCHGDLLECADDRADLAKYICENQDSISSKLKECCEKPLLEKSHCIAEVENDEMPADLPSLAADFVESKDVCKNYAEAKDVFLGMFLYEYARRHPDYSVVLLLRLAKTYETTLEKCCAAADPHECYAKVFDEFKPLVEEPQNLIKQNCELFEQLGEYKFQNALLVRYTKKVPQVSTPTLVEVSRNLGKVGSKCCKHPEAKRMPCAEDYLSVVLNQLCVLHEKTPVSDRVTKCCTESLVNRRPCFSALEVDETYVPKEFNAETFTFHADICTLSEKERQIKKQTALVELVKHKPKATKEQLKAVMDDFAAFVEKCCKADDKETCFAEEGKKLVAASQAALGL

| SMILES | Kd [µM] |
| --- | --- |
| CCS(=O)(=O)CN1CCC2(CC1)OOC1(CCCCC1)OO2 [TO2] | 93.2 |
| O=S(=O)(CCCCl)CN1CCC2(CC1)OOC1(CCCC1)OO2 [TO1] | 16 |
